# Values joined by “and” are separate entries in the source; they are usually repeats but may differ in a detail not shown here. Identical values can stand only once. “Also recorded” adds a separate entry of the source.
# Assays:
# [1] = Pharmacokinetic study: Birinapant in plasma and liver after i.v. Birinapant or I-5-S in rats; settings: rat, in vivo; for half-life: Birinapant measured after i.v. Birinapant 5 mg/kg, rats
# Description: 1. Formulation of preparation and dosing: An appropriate amount of the test sample was precisely weighed, and mixed with an appropriate volume of a solvent (5% DMSO/5% Solutol/90% water) to obtain a clear solution or a homogeneous suspension. The preparation was administered to animals within 4 hours after formulation. The dosage formulation would be administered […] in accordance with facility standard operating procedures. The dosage volume would be determined by the body weights of the animals collected on the morning of administering. 2. Blood collection: Blood (approx. 0.2 ml per point in time) would be drawn each time from the jugular vein of every animal. All blood samples would be transferred to pre-cooled commercial EDTA-K2 test tubes, and kept on wet ice until they were centrifuged. 3. Plasma processing: Blood samples would be centrifuged (3200 rpm, 10 min) at approximately 4° C. Plasma was collected separately and transferred to pre-labeled PP tubes in wet ice at each point in time, and then immediately precipitated by ACN (6 IS) (the ratio of plasma:ACN was 1:4). Centrifugation (10 min, 12,000 rpm) was carried out again to obtain a supernatant. The supernatant was quickly frozen on dry ice and kept at -70±10° C. before LC/MS/MS analysis. 4. Liver processing: Liver tissues were collected at each point in time, washed twice with pre-cooled deionized water, and dried with filter paper. Liver tissues were immediately homogenized with 10-times volume of a methanol-water solution (1:2, v/v). After homogenization, a portion of liver tissue homogenate (e.g., 200 μL of homogenate) was immediately measured. After precipitated on wet ice, the samples were centrifuged, and a supernatant was collected and stored in a refrigerator at -70±10° C. before LC-MS/MS analysis. From the remaining liver homogenate, 800 μL of the homogenate was measured as a spare. […] After the solution of compound Birinapant was intravenously injected into rats, the concentrations of the active compound Birinapant in the rats were determined in the plasma and liver, respectively (see Table 1). After the solution of compound […] was intravenously injected into rats, the concentrations of the active compound Birinapant in the rats were determined in the plasma and liver, respectively (see Table 2).
# [2] = cited from earlier work
# hepatitis B virus = settings: animal models; cited from earlier work
# hepatocellular carcinoma = settings: cited from earlier work
# [3] = Pharmacokinetic test of Compound A or B given orally or intravenously to rats (plasma and liver); type: in vivo; settings: administered orally or intravenously
# Description: To address the above-mentioned problems, the inventors have conducted intensive researches on analogues of Birinapant in the hope of reducing the toxic and side effects on the circulating system while maintaining or improving the therapeutic effect. […] Under the same conditions as described above, after rats were orally or intravenously injected with a solution of Compound A or B, the concentrations of Compound A or B and drug Birinapant in rats were measured in plasma and liver, respectively. […] Therefore, such prodrugs would have no value of application for Birinapant.
smiles,measurement,setting,value
CC[C@H](NC(=O)[C@H](C)NC)C(=O)N1C[C@@H](O)C[C@H]1Cc1c(-c2[nH]c3cc(F)ccc3c2C[C@@H]2C[C@H](O)CN2C(=O)[C@H](CC)NC(=O)[C@H](C)NC)[nH]c2cc(F)ccc12 [Birinapant],C0,[1]; iv,3470 ng/mL
same,AUC0-24,"[1]; iv, 5 mg/kg",40566 ng·h/g
same,AUC0-inf,"[1]; iv, 5 mg/kg",76641 ng·h/g
same,AUC0-last,"[1]; iv, 5 mg/kg",66712 ng·h/g
same,AUC(0-inf),"[1]; iv, 5 mg/kg",1090 ng·h/mL
same,C0,"[1]; iv, 5 mg/kg",3470 ng/mL
same,Cmax,"[1]; iv, 5 mg/kg",3470 ng/mL and 4280 ng/g
same,Kp,"[1]; iv, 5 mg/kg",64
same,Tmax,"[1]; iv, 5 mg/kg",0.25 h
same,Vd,"[1]; iv, 5 mg/kg",36.3 L/kg
same,clearance,"[1]; iv, 5 mg/kg",76.3 mL/min/kg
same,AUC(0-t),"[1]; iv, 5 mg/kg, AUC0-24",967 ng·h/mL
same,AUC(0-t),"[1]; iv, 5 mg/kg, AUC0-last",1040 ng·h/mL
same,half-life,"[1]; iv, 5 mg/kg, liver",22.9 h
same,half-life,"[1]; iv, 5 mg/kg, plasma",14.6 h
same,side effect in patients,"[2]; patients, high doses",paralysis of facial muscles
same,safe dose,"[2]; per week or twice weekly, cancer clinical trials",17 mg/M2
same,Dose Limited Toxicity,"[2]; twice weekly, limited by paralysis of facial muscles, cancer clinical trials",22 mg/M2
same,"inhibition of hepatitis B virus, particularly replication of HBsAg",hepatitis B virus,effective in inhibiting hepatitis B virus
same,survival in dosed mice,hepatocellular carcinoma,significantly prolonged
CC[C@H](NC(=O)[C@H](C)NC)C(=O)N1C[C@@H](OC(C)=O)C[C@H]1Cc1c(-c2[nH]c3cc(F)ccc3c2C[C@@H]2C[C@H](OC(C)=O)CN2C(=O)[C@H](CC)NC(=O)[C@H](C)NC)[nH]c2cc(F)ccc12 [Compound I-5-S],conversion of the prodrug into the active drug Birinapant,[1],metabolized into the active pharmaceutical ingredient Birinapant
same,reduction of the maximum concentration of Birinapant in the plasma in comparison to direct use of Birinapant,[1]; iv,94%
same,reduction of total drug exposure in the plasma in comparison to direct use of Birinapant,[1]; iv,49%
same,total exposure of Birinapant released in liver relative to direct use of Birinapant,[1]; iv,2.4 times
same,AUC Ratio (L/P),"[1]; iv, 5.97 mg/kg",194
CC[C@H](NC(=O)[C@H](C)N(C)C(=O)OCc1ccccc1)C(=O)N1C[C@@H](O)C[C@H]1Cc1c(-c2[nH]c3cc(F)ccc3c2C[C@@H]2C[C@H](O)CN2C(=O)[C@H](CC)NC(=O)[C@H](C)N(C)C(=O)OCc2ccccc2)[nH]c2cc(F)ccc12 [Compound A],degradation by in vivo esterases to release the active drug Birinapant,[3],have not been degraded at all; also recorded: could not be degraded by in vivo esterase at all
same,excreted and recovered,[3],100%
CCCCCOC(=O)N(C)[C@@H](C)C(=O)N[C@@H](CC)C(=O)N1C[C@@H](O)C[C@H]1Cc1c(-c2[nH]c3cc(F)ccc3c2C[C@@H]2C[C@H](O)CN2C(=O)[C@H](CC)NC(=O)[C@H](C)N(C)C(=O)OCCCCC)[nH]c2cc(F)ccc12 [Compound B],degradation by in vivo esterases to release the active drug Birinapant,[3],have not been degraded at all; also recorded: could not be degraded by in vivo esterase at all
same,excreted and recovered,[3],100%

# From US12479832B2, “Liver targeting drug, pharmaceutical composition and use thereof” (priority 2019, dated 2025)
